In the CheMixHub ionic liquid set:
± gives the uncertainty stated by the source.

Test: xn = mol fraction of the nth substance listed

`CN1CCCC1=O` + CC[n+]1ccn(C)c1.COS(=O)(=O)[O-] gave a viscosity (313.15 K, 101 kPa, x1 = 1) of 1.31 ± 0.29 mPa·s.
Compound `CCCC[n+]1ccccc1.O=S(=O)([N-]S(=O)(=O)C(F)(F)F)C(F)(F)F` + CCCC[n+]1ccccc1.F[B-](F)(F)F has a viscosity (303.15 K, 101 kPa, x1 = 0.2162) of 91.2 ± 2.7 mPa·s, a viscosity (303.15 K, 101 kPa, x1 = 0.7643) of 58.2 ± 1.3 mPa·s and a viscosity (313.15 K, 101 kPa, x1 = 0.4327) of 48.4 ± 1.1 mPa·s. The viscosity (313.15 K, 101 kPa, x1 = 0.5429) was 46.2 ± 1.1 mPa·s, the viscosity (313.15 K, 101 kPa, x1 = 0.6523) was 42.5 ± 1 mPa·s and the viscosity (313.15 K, 101 kPa, x1 = 0.8822) was 36.3 ± 0.9 mPa·s. It also gave a viscosity (323.15 K, 101 kPa, x1 = 1) of 24.2 ± 0.6 mPa·s, a viscosity (333.15 K, 101 kPa, x1 = 0.6523) of 21.8 ± 0.5 mPa·s and a viscosity (343.15 K, 101 kPa, x1 = 0.1119) of 21.9 ± 0.5 mPa·s. It also gave a viscosity (343.15 K, 101 kPa, x1 = 0.2162) of 19.9 ± 0.5 mPa·s, a viscosity (343.15 K, 101 kPa, x1 = 0.8822) of 14.5 ± 0.3 mPa·s and a viscosity (353.15 K, 101 kPa, x1 = 0.1119) of 16.5 ± 0.4 mPa·s. It also gave a viscosity (353.15 K, 101 kPa, x1 = 0.4327) of 13.7 ± 0.3 mPa·s, a viscosity (353.15 K, 101 kPa, x1 = 0.5429) of 13.2 ± 0.3 mPa·s and a viscosity (353.15 K, 101 kPa, x1 = 1) of 10.9 ± 0.3 mPa·s.
`CCCC[n+]1ccn(C)c1.O=S(=O)([N-]S(=O)(=O)C(F)(F)F)C(F)(F)F` + CCCCCCCCO gave a viscosity (298 K, 100 kPa, x1 = 1) of 49.7 ± 1.3 mPa·s.
Work on `CCCC[n+]1ccn(C)c1.F[P-](F)(F)(F)(F)F` + O=C1CCCC1 yielded a viscosity (298.15 K, 101.3 kPa, x2 = 0) of 270 ± 34 mPa·s.
In the case of `CCCC[n+]1ccn(C)c1.O=S(=O)([N-]S(=O)(=O)C(F)(F)F)C(F)(F)F` + O, the viscosity (298 K, 101 kPa, x2 = 0) is reported as 50.4 ± 1.9 mPa·s, the electrical conductivity (298 K, 101 kPa, x2 = 0.0227) is reported as 0.427 ± 0.064 S/m and the electrical conductivity (298 K, 101 kPa, x2 = 0.0272) is reported as 0.442 ± 0.064 S/m. For the same compound, the electrical conductivity (298 K, 101 kPa, x2 = 0.0915) was 0.472 ± 0.064 S/m, the electrical conductivity (298 K, 101 kPa, x2 = 0.1024) was 0.498 ± 0.064 S/m and the viscosity (333.15 K, 100 kPa, x2 = 0.257) was 10.68 ± 0.092 mPa·s. For the same compound, the viscosity (343.15 K, 100 kPa, x2 = 0.257) was 8.479 ± 0.073 mPa·s and the viscosity (353.15 K, 100 kPa, x2 = 0.257) was 6.903 ± 0.06 mPa·s.
In the case of `CCOC(C)=O` + CCCC[n+]1ccn(C)c1.O=S(=O)([O-])C(F)(F)F, the viscosity (298.15 K, 100 kPa, x2 = 0) is reported as 0.42 ± 0.08 mPa·s.
`CCCC[n+]1ccn(C)c1.O=S(=O)([N-]S(=O)(=O)C(F)(F)F)C(F)(F)F` + CO showed an electrical conductivity (296.35 K, 100 kPa, frequency 0.01 MHz, x1 = 0.008978) of 1.5 ± 0.06 S/m, an electrical conductivity (296.35 K, 100 kPa, frequency 0.01 MHz, x1 = 0.01434) of 2.51 ± 0.1 S/m and an electrical conductivity (296.35 K, 100 kPa, frequency 0.01 MHz, x1 = 0.02356) of 3.1 ± 0.12 S/m. The electrical conductivity (296.35 K, 100 kPa, frequency 0.01 MHz, x1 = 0.04259) was 4.63 ± 0.19 S/m, the electrical conductivity (296.35 K, 100 kPa, frequency 0.01 MHz, x1 = 0.08668) was 4.31 ± 0.17 S/m and the viscosity (298 K, 100 kPa, x1 = 0.05) was 1.017 ± 0.007 mPa·s. The viscosity (298 K, 100 kPa, x1 = 0.1927) was 3.181 ± 0.023 mPa·s, the viscosity (298 K, 100 kPa, x1 = 0.2796) was 5.166 ± 0.046 mPa·s and the viscosity (298 K, 100 kPa, x1 = 0.6962) was 23.01 ± 0.43 mPa·s. It also gave a viscosity (298 K, 100 kPa, x1 = 1) of 49.7 ± 1.3 mPa·s, an electrical conductivity (298 K, 101 kPa, x2 = 0.3686) of 0.596 ± 0.095 S/m and a viscosity (298 K, 101 kPa, x2 = 0.4819) of 13.83 ± 0.74 mPa·s. It also gave an electrical conductivity (298 K, 101 kPa, x2 = 0.7921) of 2.43 ± 0.1 S/m, a viscosity (298.15 K, 100 kPa, x2 = 0.0986) of 42.43 ± 0.52 mPa·s and a viscosity (298.15 K, 100 kPa, x2 = 0.7056) of 8.01 ± 0.21 mPa·s. For the same compound, the viscosity (303.15 K, 100 kPa, x2 = 0) was 40.54 ± 0.51 mPa·s, the viscosity (303.15 K, 100 kPa, x2 = 0.0986) was 34.9 ± 0.43 mPa·s and the viscosity (303.15 K, 100 kPa, x2 = 0.4004) was 18.48 ± 0.21 mPa·s. For the same compound, the viscosity (318.15 K, 100 kPa, x2 = 0.0986) was 20.96 ± 0.27 mPa·s, the viscosity (318.15 K, 100 kPa, x2 = 0.295) was 14.8 ± 0.19 mPa·s and the viscosity (318.15 K, 100 kPa, x2 = 0.4923) was 9.36 ± 0.22 mPa·s. For the same compound, the viscosity (318.15 K, 100 kPa, x2 = 0.7056) was 4.52 ± 0.2 mPa·s, the viscosity (323.15 K, 100 kPa, x2 = 0.7056) was 4.24 ± 0.2 mPa·s and the viscosity (323.15 K, 100 kPa, x2 = 0.8978) was 1.12 ± 0.2 mPa·s.
With `CCCC[n+]1ccn(C)c1.F[P-](F)(F)(F)(F)F` + c1ccccc1 the viscosity (313.2 K, 100 kPa, x2 = 0.6008) was 7.7 ± 0.4 mPa·s.
Work on `CCCC[n+]1cccc(C)c1.O=S(=O)([N-]S(=O)(=O)C(F)(F)F)C(F)(F)F` + CCO yielded an electrical conductivity (298.15 K, 101.3 kPa, x2 = 0) of 0.273 ± 0.005 S/m, an electrical conductivity (298.15 K, 101.3 kPa, x2 = 0.4364) of 0.642 ± 0.013 S/m and an electrical conductivity (298.15 K, 101.3 kPa, x2 = 0.6597) of 0.93 ± 0.019 S/m. It also gave an electrical conductivity (298.15 K, 101.3 kPa, x2 = 0.8246) of 1.07 ± 0.021 S/m.
With `CCCCCC[N+](CC)(CC)CC.O=S(=O)([N-]S(=O)(=O)C(F)(F)F)C(F)(F)F` + O the viscosity (293.25 K, 101 kPa, x2 = 0.1627) was 79.3 ± 1.7 mPa·s and the viscosity (308.05 K, 101 kPa, x2 = 0.1627) was 44.04 ± 0.92 mPa·s.
Compound `CCCC[n+]1ccn(C)c1.O=S(=O)([N-]S(=O)(=O)C(F)(F)F)C(F)(F)F` + CS(C)=O has a viscosity (303.15 K, 100 kPa, x2 = 0) of 40.54 ± 0.51 mPa·s and a viscosity (318.15 K, 100 kPa, x2 = 0) of 23.75 ± 0.31 mPa·s.
Compound `CN(C)C=O` + CCCC[n+]1ccn(C)c1.F[B-](F)(F)F has a viscosity (298.15 K, 101.33 kPa, x1 = 1) of 0.8 ± 0.16 mPa·s and a viscosity (333.15 K, 100 kPa, x2 = 0) of 0.559 ± 0.007 mPa·s.
In the case of `Nc1ncnc2[nH]cnc12` + CC(=O)[O-].CC[n+]1ccn(C)c1, the viscosity (298.15 K, 100 kPa, x1 = 0.2012) is reported as 960 mPa·s.
